Test: Photochromic characteristics of cast polymethyl methacrylate film (coloration under mercury lamp, fading)
Format: physicochemical
Conditions: PMMA film, 1.0×10^-4 mol/g, 0.1 mm, 35° C.; for t1/2 (half-value period of absorbance after irradiation): after 60 seconds' irradiation; for λ max (maximum absorption wavelength of the colored film) / ε (60 seconds)-ε (0 second): mercury lamp 60 seconds; for ε (60 seconds)-ε (0 second): absorbance at λmax
Method: The compound synthesized in Example 1, which was represented by the following formula: [drawing 286] was dissolved and dispersed in polymethyl methacrylate with the aid of benzene, and a cast film was prepared on a slide glass sheet (11.2 cm×3.7 cm) so that the concentration of the compound in the film was 1.0×10^-4 mol/g and the thickness of the film was 0.1 mm. The photochromic film was irradiated with rays of a mercury lamp (SHL-100 supplied by Toshiba) located 10 cm apart from the film at 35° C.+1° C. for 60 seconds to effect coloration in the film, and the photochromic characteristics were examined with respect to items described below.
Maximum absorption wavelength (λmax):
The maximum absorption wavelength λmax of the colored film was determined by using a spectrophotometer (220 A supplied by Hitachi).
After 60 seconds' irradiation under the above-mentioned conditions, the absorbance at the maximum absorption wavelength was measured.
The absorbance at the maximum absorption wavelength of the unirradiated film was measured. Half-value period t^1/2 :
After 60 seconds' irradiation, the time required for reduction of the absorbance of the film to 1/2 of [ε(60 seconds)-ε(0 second)] was measured.

t1/2 (half-value period of absorbance after irradiation)	λ max (maximum absorption wavelength of the colored film)	ε (60 seconds)-ε (0 second)	Structure (SMILES)
17 s	619	1.8	CN1c2ccccc2C2(CCCCC2)C12C=Nc1ccc3cnccc3c1O2 (centres unmarked) [Compound 26]
14 s	595	1.7	Cc1cc2ccncc2c2c1N=CC1(O2)N(C(C)C)c2ccc(Cl)cc2C12CCCC2 (centres unmarked) [Compound 28]
17 s	607	1.3	COC(=O)CN1c2ccc(N(C)C)cc2C2(CCCCC2)C12C=Nc1cc(Br)c3ccccc3c1O2 (centres unmarked) [Compound 11]
15 s	613	1.7	CN1c2c(F)cc(F)cc2C2(CCCCC2)C12C=Nc1ccc3cnccc3c1O2 (centres unmarked) [Compound 27]
18 s	607	1.4	COC(=O)CCCCN1c2cc3[nH]ccc3cc2C2(CC3CCC2C3)C12C=Nc1cc(-c3ccccc3)c3ncccc3c1O2 (centres unmarked) [Compound 13]
18 s	609	1.2	COC(=O)CN1c2cc(Cl)ccc2C2(C3CC4CC(C3)CC2C4)C12C=Nc1ccc3cc4ccc(Br)cc4cc3c1O2 (centres unmarked) [Compound 24]
18 s	611	1.5	COC(=O)c1ccc2c(c1)C(C)(C)C1(C=Nc3ccc4ncccc4c3O1)N2C (centres unmarked) [Compound 52]
18 s	610	1.2	CN1c2ccc([N+](=O)[O-])cc2C2(CCCCC2)C12C=Nc1ccc3ccccc3c1O2 (centres unmarked) [Compound 21]
17 s	603	1.4	COC(=O)c1cc2c(c3cc[nH]c13)OC1(C=N2)N(C)c2[nH]ccc2C12CCCCC2 (centres unmarked) [Compound 20]
16 s	615	1.7	CN1c2ccccc2C(C)(C)C12C=Nc1ccc3cnccc3c1O2 (centres unmarked) [Compound 53]
16 s	602	1.6	Cc1cc2c(c3ccnc(C)c13)OC1(C=N2)N(C(C)C)c2cc(Br)ccc2C12CCCCCC2 (centres unmarked) [Compound 29]
18 s	606	1.4	N#CCN1c2[nH]ccc2C2(CCCCCC2)C12C=Nc1cc(C#N)c3ccccc3c1O2 (centres unmarked) [Compound 17]
18 s	611	1.4	CN1c2ccccc2C2(CCCCC2)C12C=Nc1cc(Cc3ccccc3)c3ccccc3c1O2 (centres unmarked) [Compound 25]
17 s	607	1.2	COc1ccc2c(c1)C1(CCCCC1)C1(C=Nc3ccc4cc5[nH]ccc5cc4c3O1)N2C (centres unmarked) [Compound 19]
18 s	603	1.4	CN1c2ccccc2C2(CC3CCC2C3)C12C=Nc1ccc3cccnc3c1O2 (centres unmarked) [Compound 2]
16 s	607	1.3	CN1c2cc3ncc(-c4ccsc4)cc3cc2C2(C3CC4CC(C3)CC2C4)C12C=Nc1ccc3ccccc3c1O2 (centres unmarked) [Compound 15]
18 s	603	1.4	CN1c2cc3occc3cc2C2(CC3CCC2C3)C12C=Nc1ccc3ccccc3c1O2 (centres unmarked) [Compound 8]
18 s	601	1.8	N#Cc1cnc2ccc3c(c2c1)OC1(C=N3)N(CCc2ccccc2)c2ccccc2C12CCCCC2 (centres unmarked) [Compound 7]
17 s	606	1.2	COc1cc2c(c3ccccc13)OC1(C=N2)N(c2ccccc2)c2ccccc2C12CCCC2 (centres unmarked) [Compound 16]
17 s	601	1.4	CN(C)c1cc2c(c3cc4cc[nH]c4cc13)OC1(C=N2)N(C)c2ncc(Cc3ccccc3)cc2C1(C)C (centres unmarked) [Compound 47]

The remaining lines, values behind:

Structure (SMILES)	t1/2 (half-value period of absorbance after irradiation)	λ max (maximum absorption wavelength of the colored film)	ε (60 seconds)-ε (0 second)
COC(=O)CN1c2cc3ccc([N+](=O)[O-])cc3cc2C2(CC3CCC2C3)C12C=Nc1c(C(F)(F)F)cc3ncccc3c1O2 (centres unmarked) [Compound 14]	16 s	606	1.4
CN1c2occ(C#N)c2C(C)(C)C12C=Nc1cc(Cc3ccccc3)c3ncc(Br)cc3c1O2 (centres unmarked) [Compound 48]	18 s	610	1.4
COC(=O)c1cc2ncccc2c2c1N=CC1(O2)N(C)c2c(cc(C(F)(F)F)c(C(F)(F)F)c2C(F)(F)F)C1(C)C (centres unmarked) [Compound 51]	18 s	609	1.4
CCC1(CC)c2ccc(N(C)C)cc2N(CCc2ccccc2)C12C=Nc1c(Cl)cc3cc(OC)ncc3c1O2 (centres unmarked) [Compound 32]	19 s	590	1.7
CN1c2ccc(Cl)cc2C2(C3CC4CC(C3)CC2C4)C12C=Nc1cc(N3CCCCC3)c3ncccc3c1O2 (centres unmarked) [Compound 9]	17 s	605	1.2
CCCCN1c2cc(CC)ccc2C2(CC3CCC2C3)C12C=Nc1c(N)cc3occc3c1O2 (centres unmarked) [Compound 23]	19 s	605	1.2
CCC1(C)c2cc(OC)ccc2N(Cc2ccccc2)C12C=Nc1cc(-c3ccccc3)c3c(OC)nccc3c1O2 (centres unmarked) [Compound 31]	17 s	619	1.7
CCC1(CC)c2cc(O)cnc2N(C)C12C=Nc1ccc3ncccc3c1O2 (centres unmarked) [Compound 5]	16 s	598	1.7
CN1c2c(F)cc(F)cc2C(C)(C)C12C=Nc1ccc3cnccc3c1O2 (centres unmarked) [Compound 54]	14 s	609	1.5
CC1(C)c2cc3cc(-c4ccsc4)oc3cc2N(CCC#N)C12C=Nc1c(N)cc3ncccc3c1O2 (centres unmarked) [Compound 50]		605	1.5
Cc1cc2ccncc2c2c1N=CC1(O2)N(C(C)C)c2ccc(Cl)cc2C1(C)C (centres unmarked) [Compound 55]	13 s	590	1.6
CN1c2cc(N3CCCC3)ccc2C(C)(C)C12C=Nc1c(C(F)(F)F)cc3ncccc3c1O2 (centres unmarked) [Compound 49]	19 s	600	1.5
CCCN1c2ccc(C(F)(F)F)cc2C2(C3CC4CC(C3)CC2C4)C12C=Nc1ccc3ccccc3c1O2 (centres unmarked) [Compound 4]	18 s	605	1.4
CN(C)c1cc2c(c3ccccc13)OC1(C=N2)N(C)c2ccccc2C12CC1CCC2C1 (centres unmarked) [Compound 3]	18 s	603	1.3
CCC1(CC)c2cc(C(F)(F)F)ccc2N(Cc2ccccc2)C12C=Nc1cc(Cc3ccccc3)c3c(C)cncc3c1O2 (centres unmarked) [Compound 30]	18 s	589	1.6

From patent US5246989A, “Photochromic compound, composition and use thereof” (priority 1990, dated 1993)
